Like-named read-outs stand apart in the source and are kept apart here.
Experiments:
T27A cells = assay: Inhibition of T27A cell proliferation by [3H]thymidine incorporation; type: cell-based, murine
Protocol: The murine non-T non-B leukemia cell line T27A (ATCC, Rockville, Md., USA) was cultured in RPMI 1640 medium (Gibco/BRI, Gaithersburg, Md.) supplemented with 25 mM HEPES buffer, 2 mM glutamine, 100 U penicillin/ml, 100 μg streptomycin/ ml and 2 or 10% bovine calf serum (Hyclone, Logan, Utah) in a humidified 5% CO2 atmosphere. Cell viability was determined by Trypan blue exclusion.
DHA (NuChek Prep, Elysan, Minn.) was introduced into RPMI 1640 medium supplemented with 1% (w/v) fatty acid-free bovine serum albumin (Sigma) as described by Spector and Hoak (33) with modifications we have reported (34).
Liposomes were prepared fresh for each use. The bulk of the lipids was 18:0, 18:1 PC (up to 90 mol %), with 10 mol % 18:0, 18:1 PE added to augment fusion between liposomes and the cell-surface membrane. The control contained no additional lipids; the experimental groups contained up to an additional 15 mol % 18:0, 22:6 PC or up to 0.43 mol % 18:0, MTX-PC or 22:6, MTX-PC. The solvent was evaporated under nitrogen and the lipids dried under vacuum for 2 h. The lipids were rehydrated in RPMI medium, and multilamellar vesicles were prepared by vortexing 1 ml of lipids at a concentration of 2 mg/ml. Liposomes (small unilamellar vesicles) were created by sonicating the multilamellar vesicles for 15 min on ice under nitrogen with a Heat Systems W380 disruptor (Farmingdale, N.Y.) set at 1 s cycle time, 60% duty and 3-7% output. Liposome suspensions were centrifuged at low speed (3700 r.p.m.; 2300 g) to remove particulate material and sterile filtered through a 0.2-μm filter. An aliquot of each liposome preparation was tested by thin-layer chromatography to assure that hydrolysis had not occurred.
All concentrations given are final concentrations in the wells. […] Control liposomes were made from 1 mM 18:0, 18:1 PC/ 18:0, 18:1 PE (9/1, mol:mol). After 6 h of incubation, 0.5 μCi/well of [^3H]thymidine (2 Ci/mmol; Amersham, Arlington Heights, Ill.) was added and the incubation continued for an additional 18 h. Cells were then harvested onto glass fiber filters (PHD Cell Harvester; Cambridge Technology, Watertown, Mass.) and the radioactivity present in DNA on the filters was measured by liquid scintillation counting.
The IC50 for each agent alone was determined by non-linear curve fitting with the software package SigmaPlot (SPSS, Chicago, Ill.).

human neoplastic cells = details: (1); cited from earlier work
[1] = tested on: several different cell types; details: variety of assays in vitro (11, 37-39); cited from earlier work
[2] = (35); cited from earlier work
[3] = previous study (26); cited from earlier work
[4] = lipid included in liposomes of 1 mM 18:0,18:1 PC/18:0,18:1 PE (9:1), 24 h, read-out: IC50, inhibition of proliferation

CC/C=C\C/C=C\C/C=C\C/C=C\C/C=C\C/C=C\CCC(=O)O [DHA, docosahexaenoic acid]
% of maximal proliferation (T27A cells; 220 μM DHA alone): 57% | predicted % inhibition at 25 µM (T27A cells; Mus musculus, [DHA] 25 μM): 4.9% | predicted % inhibition at 50 µM (T27A cells; Mus musculus, [DHA] 50 μM): 9.8% | predicted % inhibition at 100 µM (T27A cells; Mus musculus, [DHA] 100 μM): 19.7% | predicted % inhibition at 150 µM (T27A cells; Mus musculus, [DHA] 150 μM): 29.5% | predicted % inhibition at 200 µM (T27A cells; Mus musculus, [DHA] 200 μM): 39.3% | IC50 (T27A cells; Mus musculus, albumin-bound DHA not conjugated to phospholipids, 24 h, 2% serum, read-out: IC50, inhibition of [3H]thymidine incorporation): 211 µM | IC50 with albumin delivery relative to IC50 for DHA delivered in ethanol (T27A cells; albumin versus ethanol delivery): about 5 times

CCCCCCCCCCCCCCCCCC(=O)OC[C@H](COP(=O)([O-])OCC[N+](C)(C)C)OC(=O)CC[C@H](NC(=O)c1ccc(N(C)Cc2cnc3nc(N)nc(N)c3n2)cc1)C(=O)O [18:0, MTXγ-PC]
IC50 (T27A cells; [4]): 2.11 µM

CN(Cc1cnc2nc(N)nc(N)c2n1)c1ccc(C(=O)N[C@@H](CCC(=O)O)C(=O)O)cc1 [MTX, methotrexate]
level at which toxic (human neoplastic cells): 20 nM | % of maximal proliferation (T27A cells; 30 nM MTX alone): 52% | IC50 (T27A cells; Mus musculus, 24 h, read-out: IC50 (dose for 50% inhibition of proliferation)): 0.0306 µM | Inhibition (Predicted; %) (T27A cells; [MTX] 2.7 nm): 4.3% | Inhibition (Predicted; %) (T27A cells; [MTX] 9.5 nm): 15.2% | Inhibition (Predicted; %) (T27A cells; [MTX] 16.5 nm): 26.3% | Inhibition (Predicted; %) (T27A cells; [MTX] 23.3 nm): 37.2% | Inhibition (Predicted; %) (T27A cells; [MTX] 26.7 nm): 42.6% | range of inhibitory doses reported [1]: 15 to 240 nM | pKa of α-carboxyl group [2]: 3.35

CC/C=C\C/C=C\C/C=C\C/C=C\C/C=C\C/C=C\CCC(=O)OC[C@H](COP(=O)([O-])OCC[N+](C)(C)C)OC(=O)CC[C@H](NC(=O)c1ccc(N(C)Cc2cnc3nc(N)nc(N)c3n2)cc1)C(=O)O [22:6, MTXγ-PC]
IC50 (T27A cells; [4]): 1.19 µM | potency as inhibitor of cell proliferation relative to 18:0, MTXγ-PC (T27A cells; liposomes with up to 0.43 mol % (4.2 μM) MTXγ-PC, 24 h): more potent inhibitor of cell proliferation than 18:0, MTXγ-PC | inhibition relative to 18:0, MTXγ-PC (T27A cells; low concentrations, below 1.5 μM, in liposomes): significantly more inhibitory than 18:0, MTXγ-PC

CC/C=C\C/C=C\C/C=C\C/C=C\C/C=C\C/C=C\CCC(=O)OC[C@H](COP(=O)([O-])OCC[N+](C)(C)C)OC(=O)CC/C=C\C/C=C\C/C=C\C/C=C\C/C=C\C/C=C\CC [22:6, 22:6 PC, 1,2-didocosahexaenoyl-sn-glycero-3-phosphocholine]
direct cytotoxicity [3]: comparable to 18:0, 22:6 PC

Source: patent US20040052837A1, “Lipid conjugated anti-cancer drugs and methods of use thereof” (priority 2002, published 2004)
